Experimental data reported in patent publication US8778616B2, “Method of using CCR3 binding agents to detect choroidal neovascularization” (University of Kentucky Research Foundation, priority 2009, dated 2014).

Key:
CCR3 = CCR3 bioimaging: fundus angiography after intravenous injection; format: in vivo, mouse; details: wild-type and Ccl2−/−×Ccr2−/− mice
Protocol: CCR3 bioimaging. F(ab) fragments were created from monoclonal IgG2a antibody raised against the extracellular domain of murine CCR3 (R&D Systems) and an isotype rat IgG2a (R&D Systems) using a commercially available papain-based kit (Pierce). Recovered fragments were conjugated with quantum dots (Invitrogen, QDot-800) and resuspended in sterile PBS. Ccl2^−/−×Ccr2^−/− mice were administered 100 μg of tagged CCR3 F(ab) or isotype F(ab) via tail vein injection after acquiring baseline fluorescent imaging using a Topcon retinal camera (TRC-50IX). Serial images were then acquired at 1, 4, and 12 h after which eyes were harvested and frozen in OCT for immunofluorescent analyses. Retinal images were analyzed (ImageNet, Topcon) by comparison to baseline and fluorescein angiographic data. Hyperfluorescent areas were then cropped, equally thresholded, and pseudocolored (Photoshop CS3, Adobe). Sections from QDot-conjugated CCR3 or rat IgG2a isotype F(ab) injected animals were fixed in 4% paraformaldehyde and blocked with 5% normal donkey serum/5% goat serum in PBS, stained with rat anti-mouse CD31 (BD Biosciences) and either rabbit anti-mouse CCR3 (Santa Cruz) or rabbit anti-Ki67 (Abcam) followed by appropriate fluorescent secondary antibodies (Alexa Fluor 488/594, Invitrogen), and evaluated by confocal laser scanning microscopy (Leica SP-5).

laser-induced CNV [1] = test: Laser-induced CNV in wild-type mice; format: in vivo, mouse; details: single intraocular administration after laser injury, versus isotype IgG or vehicle
Protocol: (§1) Mouse model of CNV. Laser photocoagulation (OcuLight GL, Iridex Corporation) was performed on mouse eyes to induce CNV, and CNV volumes were measured 7 days after injury by scanning laser confocal microscope (TCS SP, Leica) as previously described (Kleinman, et al., Nature. 452, 591-597 (2008)). Drug injections. Rat IgG2a neutralizing antibody against mouse CCR3 (R&D Systems), control rat IgG2a (Serotec), goat neutralizing antibody against mouse CCL11 (R&D Systems), goat neutralizing antibody against mouse CCL24 (R&D Systems), control goat IgG (Jackson Immunoresearch), or (S)-Methyl-2-naphthoylamino-3-(4-nitrophenyl)propionate (SB328437; Calbiochem) dissolved in DMSO were injected into the vitreous humor using a 33-gauge double-calibre needle (Ito Corporation) once, immediately after laser injury as previously described (Kleinman, et al., (2008) supra).
Drug injections. […]

laser-induced CNV [2] = test: Laser-induced CNV in Ccr3−/− mice (specificity of CCR3 blockade); format: in vivo, mouse; details: n=5, P>0.1
Protocol: as §1
Animals. All animal experiments were in accordance with the guidelines of the University of Kentucky IACUC and the Association for Research in Vision and Ophthalmology. C57BL/6J and Kit^W-v/Kit^W-v mice were purchased from The Jackson Laboratory. […]

retina = test: Retinal toxicity by fundus imaging and electroretinography; format: in vivo; details: wild-type mice, fundus imaging and electrophysiological function; anti-VEGF-A: repeated intravitreous administration
Protocol: Electroretinography. Mice were dark adapted overnight and then anesthetized. Both eyes were positioned within a ColorBurst Ganzfeld stimulator (Diagnosys). Espion software (Diagnosys) was used to program a fully automated flash intensity series from which retinal responses were recorded.

human CECs [3] = test: Proliferation assay (BrdU ELISA); format: cell-based; details: 24 h stimulation; CCL11 10 ng/ml, CCL24 100 ng/ml, CCL26 2 μg/ml; versus BSA
Protocol: Proliferation assay. Human CECs were synchronized for cell cycle state by first cultivating them in EGM2-MV media (Lonza) supplemented with 10% FBS (Gibco) to achieve complete confluence and then by overnight serum starvation in MCDB131 media (Gibco) with 0.1% FBS. They were passaged to 96-well plates at a density of 5,000 cells per well, followed by stimulation for 24 h with eotaxin-1, 2 or 3 (10 ng, 100 ng and 2 μg per ml, respectively; Peprotech) in MCDB131 media with 0.1% FBS. After 24 h, cell viability was measured with BrdU ELISA (Chemicon) according to manufacturer's instructions.

human CECs [4] = test: F-actin polymerization assay; format: cell-based; details: CCL11 10 ng/ml, CCL24 100 ng/ml, CCL26 2 μg/ml; versus PBS
Protocol: F-actin Polymerization Assay. Human CECs were seeded in black-walled 96-well plates and grown to 70-80% confluence in fully supplemented EGM-2MV. Cultures were serum starved overnight in basal media and then stimulated with recombinant human eotaxin-1 (10 ng/ml), eotaxin-2 (100 ng/ml), eotaxin-3 (2 μg/ml) (Peprotech), or vehicle control (PBS). At 0, 10, 30, 60, or 120 sec time-points, cells were fixed in 3.7% paraformaldehyde for 10 min, washed, permeabilized in PBS with 0.1% Triton-X, and then stained with rhodamine labelled Phalloidin (1:200, Invitrogen) per manufacturer's recommendations. Plates were analyzed on a fluorescent plate reader (Synergy 4, Biotek) followed by fluorescent microscopy (Nikon E800).

Rac-1 = Rac-1 activation pull-down assay; format: cell-based; details: human CECs; CCL11 10 ng/ml, CCL24 100 ng/ml, CCL26 2 μg/ml; versus unstimulated (0 s) cells
Protocol: Rac-1 activation. Human CECs were cultured in EGM-2 MV containing 5% FBS. Prior to starting the assay, cells were serum starved with basal medium (MCDB131) supplemented with 1% FBS overnight. Cells were stimulated for designated times with Eotaxin-1, 2 and 3 (10 ng/ml, 100 ng/ml and 2 μg/ml respectively). Equal amounts of lysates (500 μg) were incubated with GST-Pak1-PBD agarose beads (Upstate) to pull-down active GTP-bound Rac-1 at 4° C. for 1 h with rotation. The samples were subsequently analyzed for bound Rac-1 by western blot analysis using an anti-Rac-1 antibody (Upstate).

Molecule | hyperfluorescence indicative of CNV on fluorescein angiography (CCR3) | laser-induced CNV (effect in words) (laser-induced CNV [1]) | laser-induced CNV (effect in words) (laser-induced CNV [1]; listed as (S)-Methyl-2-naphthoylamino-3-(4-nitrophenyl)propionate) | CNV in Ccr3−/− mice (laser-induced CNV [2]) | retinal toxicity (retina) | human CEC proliferation (human CECs [3]) | actin polymerization in human CECs (human CECs [4]) | active (GTP-bound) Rac-1 GTPase levels (Rac-1)
O=C([O-])c1ccccc1-c1c2ccc(=O)cc-2oc2cc([O-])ccc12.[Na+].[Na+] [sodium fluorescein] | no areas of hyperfluorescence indicative of CNV | – | – | – | – | – | – | –
(S)-Methyl-2-naphthoylamino-3-(4-nitrophenyl)propionate [SB328437] | – | reduced | suppressed laser injury-induced CNV in wild-type mice in a dose-dependent fashion | 109±16 % of control | neither CCR3 Ab nor CCR3 receptor antagonist induced retinal toxicity | – | – | –
CCL11: CCR3 ligand eotaxin-1, recombinant human (Peprotech) | – | – | – | – | – | induced human CEC proliferation | induced actin polymerization | increased levels of activate Rac-1 GTPase
CCL26: CCR3 ligand eotaxin-3, recombinant human (Peprotech) | – | – | – | – | – | induced human CEC proliferation | induced actin polymerization | increased levels of activate Rac-1 GTPase
CCL24: CCR3 ligand eotaxin-2, recombinant human (Peprotech) (protein, UniProt O00175 27-119, looked up) C-C motif chemokine 24: VVIPSPCCMFFVSKRIPENRVVSYQLSSRSTCLKAGVIFTTKKGQQFCGDPKQEWVQRYMKNLDAKQKKASPRARAVAVKGPVQRYPGNQTTC | – | – | – | – | – | induced human CEC proliferation | induced actin polymerization | increased levels of activate Rac-1 GTPase
